Experimental data reported in patent US11433075B2, “Methods of treating glioblastoma” (TriAct Therapeutics, Inc., priority 2017, dated 2022).
Read-outs that look alike come from different tables or passages of the source. Blank lines part the entries; values can stand above or below the compound they belong to.

What was measured:
[1] = human, in vivo, iv
Excerpt: It was a single arm, multi dose, dose escalating trial in newly diagnosed GBM patients. The total number of patients was 43, with about 5 patients per cohort. Patients who tolerated radiation (XRT) and temozolomide (TMZ) were recruited. Inclusion criteria included completion of XRT and TMZ without grade 3 or 4 toxicity and labs within acceptable range within 6 weeks of completing XRT. The end points included safety, maximum tolerated dose (MTD), and signal of activity.
The patients were separated into two study groups with the following treatment schema (also see FIG. 1).
Continuous Reassessment Method (CRM) was used to determine dose escalation. PK was drawn at cycle 1, 2, 3 and off treatment. PD via PBMCs was drawn at cycle 1, 2, 3 and off treatment. No cytochrome P450-inducing anticonvulsants. However, Gliadel was permitted.
Dosing is IV 2×/week continuous.

[2] = system: adult patients with newly diagnosed glioblastoma multiforme (GBM); experiment: Phase II GBM trial (ABTC0703): overall survival; format: in vivo, human
Method: 76 patients were recruited for this study.
The following treatment schema (also see FIG. 2).
RT: 60 Gy (total) TMZ: Daily 75 mg/m^2
BSI-201: once per day, twice a week (8.0 mg/kg IV q2 wk)
Rest (4 weeks) with no treatment.
Maintenance Cycles 1-6 (4 weeks)
BSI-201: once per day, twice a week (8.6 mg/kg IV q2 wk)
(§1) For assessing the efficacy of the treatment in terms of overall survival, the overall failure rate were estimated and compared to the failure rate of 0.6 per-person year of follow-up regarding the Phase III trial done by Stupp et al. in the same patient population treated with RT plus concomitant and adjuvant temozolomide.
The primary endpoint was death due to all causes. The survival time is defined from time of histological diagnosis to death occurrence. The overall failure rate was expressed as hazard of failure per person-year of follow-up. The total patient population for this part of the study was defined as all patients who have met the eligibility criteria, not met ineligibility criteria, and signed patient informed consent.
It yield above 90% power to detect a 30% reduction in hazard rate with observed hazard ratio of 0.7 (0.42 vs. 0.6) at an alpha level of 0.1 to be significant. The overall failure rate was estimated by dividing the number of events (deaths) by the total exposure time in the study cohort along with 95% confidence intervals. Survival probability and median time of survival was calculated using Kaplan-Meier method.

[3] = system: newly diagnosed GBM patients; experiment: Phase I GBM study: safety, DLT, MTD, adverse events; format: in vivo, human
Method: Study Group 1 Treatment Cycles 4 weeks each (N=23)
Study Group 2 Treatment Cycles 10 weeks each (N=20)
No cytochrome P450-inducing anticonvulsants. However, Gliadel was permitted.
Group 1: TMZ (150-200 mg/m^2 given 5 days/month×6 cycles)—standard dose with BSI-201 starting at 5.1 mg/kg.
Group 2: TMZ (75 mg/m^2 daily 42 days on 30 days off×3 cycles)—metronomic dose with BSI-201 starting at 5.1 mg/kg.
Using modified continual reassessment method, MTD was defined for metronomic and standard dose TMZ. 6 dose levels were tested (lowest 5.1 mg/kg-highest 9.5 mg/kg IV 2×/wk). […] The DLTs across both groups were: rash (1), hypersensitivity reaction (1), fatigue (1) and a thromboembolic event (1). […] Phase 2 dose defined as 8 mg/kg IV 2×/wk with standard TMZ and 8.6 mg/kg IV 2×/wk with metronomic TMZ.

[4] = system: same patient population (newly diagnosed GBM); experiment: EORTC Phase III trial, Stupp et al. 2005 (RT plus concomitant and adjuvant temozolomide); format: in vivo, human; conditions: 2005 n = 287, conversion
Excerpt: as §1

[5] = system: same patient population (newly diagnosed GBM); conditions: Stupp et al, 2005 (RT + temozolomide); cited from earlier work
GBM patients = experiment: RTOG 0525 trial, 2013 (STD and DD arms); format: in vivo, human; conditions: conversion

Cmax ([1]; 5.1 mg/kg): 5.7 ± 4.1 ng/mL
Cmax ([1]; 6.1 mg/kg): 7.2 ± 1.8 ng/mL
Cmax ([1]; 6.8 mg/kg): 8.4 ± 3.7 ng/mL
Cmax ([1]; 8 mg/kg): 10.3 ± 2.9 ng/mL
Cmax ([1]; 8.6 mg/kg): 9.7 ± 2.4 ng/mL
Cmax ([1]; 9.5 mg/kg): 13.6 ± 5.3 ng/mL
SMILES: NC(=O)c1ccc(I)c(N)c1 [IABM]

SMILES: NC(=O)c1ccc(I)c([N+](=O)[O-])c1 [Iniparib, 4-iodo-3-nitrobenzamide]
Median Overall Survival, mOS, MGMT methylated ([2]; ABTC0703, n = 29): 27 (n = 29) Months
Median Overall Survival, mOS, MGMT unmethylated ([2]; ABTC0703, n = 37): 15.8 (n = 37) Months
Hazard Rate (per person year of follow-up) ([2]; ABTC0703 n = 76, hazard rate of death): 0.403 per person year of follow-up
Median Overall Survival Months, (95% CI) ([2]; ABTC0703 n = 76, iniparib + RT + TMZ, then iniparib + TMZ maintenance): 21.6 (16.1-23.7) Months
Comparison with RTOG 0525 (2013) ([2]; extrapolated and not pre-planned analysis): improved
Reduction of HR versus Stupp et al 2005 ([2]; single arm phase 2, efficacy endpoint met): ≥ 25%
Phase 2 dose ([3]; IV 2×/wk with metronomic TMZ): 8.6 mg/kg
Phase 2 dose ([3]; IV 2×/wk with standard TMZ): 8 mg/kg
DLT: fatigue (number) ([3]; human, in vivo): 1
DLT: hypersensitivity reaction (number) ([3]; human, in vivo): 1
DLT: rash (number) ([3]; human, in vivo): 1
DLT: thromboembolic event (number) ([3]; human, in vivo): 1
White counts decreased ([3]; human, in vivo): 22 (51) No. (% of pts)

SMILES: Cn1nnc2c(C(N)=O)ncn2c1=O [temozolomide]
Hazard Rate (per person year of follow-up) [4]: 0.6 per person year of follow-up
Neutrophil Count Decreased [5]: 7%
Platelet Count Decreased [5]: 12%
White Blood Cell Decreased [5]: 7%
Hazard Rate (per person year of follow-up) (GBM patients; RTOG 0525, 2013 DD arm, n = 422): 0.558 per person year of follow-up
Hazard Rate (per person year of follow-up) (GBM patients; RTOG 0525, 2013 STD arm, n = 411): 0.501 per person year of follow-up
